Measured values as given in ChEMBL document CHEMBL3098063, “Dammarane triterpenes from the leaves of Panax ginseng enhance cellular immunity” (Bioorg Med Chem, 2014).
The source made the active and inactive calls.

How the values were obtained:
Assay type in all cases: functional, cell-based
[1] = tested on: Peritoneal macrophage cell; experiment: Inhibition of NO production in LPS-activated mouse peritoneal macrophages at 100 ng/mL after 1 day by ELISA
Splenocyte [2] = experiment: Inhibition of IL-4 secretion in ConA-activated Balb/C mouse splenocytes at 100 ng/mL after 1 day by ELISA
Splenocyte [3] = experiment: Stimulation of IL-2 secretion in ConA-activated Balb/C mouse splenocytes at 100 ng/mL after 1 day by ELISA
Splenocyte [4] = experiment: Inhibition of IL-6 secretion in ConA-activated Balb/C mouse splenocytes at 100 ng/mL after 1 day by ELISA
[5] = tested on: Peritoneal macrophage cell; experiment: Increase in IL-12 production in LPS-activated mouse peritoneal macrophages at 100 ng/mL after 1 day by ELISA

CC(C)=C[C@H]1C[C@](C)(O[C@@H]2O[C@H](CO)[C@@H](O)[C@H](O)[C@H]2O)[C@H]2CC[C@]3(C)[C@@H]2[C@@H](C[C@@H]2[C@@]4(C)CC[C@H](O)C(C)(C)[C@@H]4CC[C@]23C)O1
active: inhibition [1] | inhibition (Splenocyte [2]) | Activity (Splenocyte [3]) | inhibition (Splenocyte [4]) | Activity [5]

CC(=O)/C=C/C=C(\C)[C@H]1CC[C@]2(C)[C@@H]1[C@H](O)C[C@@H]1[C@@]3(C)CC[C@H](O)C(C)(C)[C@@H]3[C@@H](O)C[C@]12C
active: inhibition [1] | inhibition (Splenocyte [2]) | Activity (Splenocyte [3]) | inhibition (Splenocyte [4]) | Activity [5]

CC(C)=CCC[C@](C)(O)[C@H]1CC[C@]2(C)[C@@H]1[C@H](O)C[C@@H]1[C@@]3(C)CC[C@H](O)C(C)(C)[C@@H]3[C@@H](O[C@@H]3O[C@H](CO)[C@@H](O)[C@H](O)[C@H]3O[C@H]3O[C@@H](C)[C@H](O)[C@@H](O)[C@H]3O)C[C@]12C
active: inhibition (Splenocyte [2]) | Activity (Splenocyte [3]) | inhibition (Splenocyte [4]) | Activity [5]
